Key:
[1] = biological target: T1, biotinylated B-Catenin residues 134-665 (Uniprot ID P35222) (Homo sapiens, UniProt P35222); experiment: Surface plasmon resonance (Biacore) binding to beta-catenin; conditions: read-out: SPR Kd
T1 construct: biotinylated B-Catenin residues 134-665 (Uniprot ID P35222)
T1 sequence (P35222 134-665): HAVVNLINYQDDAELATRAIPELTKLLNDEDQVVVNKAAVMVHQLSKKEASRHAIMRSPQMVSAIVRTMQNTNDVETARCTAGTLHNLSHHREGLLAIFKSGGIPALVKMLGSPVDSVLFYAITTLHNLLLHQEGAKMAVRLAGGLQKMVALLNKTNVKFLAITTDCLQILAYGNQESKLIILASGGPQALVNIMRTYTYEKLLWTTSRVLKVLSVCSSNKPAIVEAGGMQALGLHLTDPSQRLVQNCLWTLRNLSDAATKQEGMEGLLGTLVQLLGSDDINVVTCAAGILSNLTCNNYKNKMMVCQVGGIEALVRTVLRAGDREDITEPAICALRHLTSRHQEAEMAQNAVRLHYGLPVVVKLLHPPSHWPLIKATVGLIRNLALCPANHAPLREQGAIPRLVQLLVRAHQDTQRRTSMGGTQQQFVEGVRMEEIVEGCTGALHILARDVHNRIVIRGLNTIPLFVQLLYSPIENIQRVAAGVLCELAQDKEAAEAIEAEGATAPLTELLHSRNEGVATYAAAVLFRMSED
Experimental: In some embodiments, binding to beta-catenin may be measured by surface plasmon resonance (SPR).
Peptides at 10 mM concentration in DMSO are diluted into Biacore™ running buffer (50 mM Tris pH 8.0, 300 mM NaCl, 2% glycerol, 0.5 mM TCEP, 0.5 mM EDTA, 0.005% Tween-20, 0.09% DMSO) to afford an appropriate dilution range. […] Results were analyzed using the Biacore™ Insight Evaluation Software, fitting to a 1:1 binding model.
SPR. In some embodiments, SPR may be utilized for characterizing or assessing interactions, bindings, etc. The following protocol is described as an example. In some embodiments, SPR experiments were performed on a Biacore™ 8K (Cytiva, Marlborough, MA) instrument at 25° C. Compounds were diluted into running buffer (50 mM Tris pH 8.0, 300 mM NaCl, 2% glycerol, 0.5 mM TCEP, 0.5 mM EDTA, 0.005% Tween-20, 1% DMSO). […] Results were analyzed using the Biacore™ Insight Evaluation software, with double referencing and fitted to a 1:1 binding affinity model.

[2] = Mouse plasma pharmacokinetics (IV, IP); assay type: in vivo; conditions: single intraperitoneal (IP) dose at 100 mg/kg
Experimental: Concentrations of agents in biological samples were measured by LC-MS/MS (Triple Quad 6500+). […] 8 uL of plasma or tissue lysate was used for LC method with mobile phase A (1% formic acid (FA, LS118-4, Fisher Scientific) in H2O) and mobile phase B (0.1% FA in ACN), 0.6 ml/min flow rate in Waters ACQUITY UPLC BEH C18 2.1*50 mm, 1.7 μm column. […] MS was conducted by electrospray ionization and multi reaction monitor scans. PK parameters such as plasma maximum concentration (Cmax), and AUC were analyzed by noncompartmental model 200 of Phoenix WinNonlin 8.3, using the linear/log trapezoidal method.
In some embodiments, concentrations of compounds, e.g., stapled peptides, in biological samples were measured by LC-MS/MS (Triple Quad 6500+). […] 8 uL of plasma or tissue lysate was used for LC method with mobile phase A (1% formic acid (FA, LS118-4, Fisher Scientific) in H2O) mobile phase B (0.1% FA in ACN), 0.6 ml/min flowrate in Waters ACQUITY UPLC BEH C18 2.1*50 mm, 1.7 um column. […] In some embodiments, MS was conducted by electrospray ionization and multi reaction monitor scans. In some embodiments, PK parameters such as plasma maximum concentration (Cmax), and AUC were analyzed by noncompartmental model 200 of Phoenix WinNonlin 8.3, using the linear/log trapezoidal method.

With “Ac-PL3-Glu-Npg-B5-Glu-3COOHF-Aib-Ala-Phe-Lys*3-PyrS2-3Thi-BztA-GlnR*3-Ala-NH2 [I-470]” the Kd [1] was > 5 µM and the “plasma AUC” value [2] was “comparable”.
